Experimental data: US20240327372A1, “PREPARATION OF PHENE[…] […] STEREOISOMERS THEREOF AND PRECURSORS THEREOF” (priority 2022, published 2024)

Experiments:
[1] = biological target: dopamine transporter (DAT) (Rattus norvegicus (Rat), UniProt P23977); assay: Competition radioligand binding, [3H]WIN35428, rat brain membranes; conditions: for IC50 / Ki: DA transporter; for Ki: Cheng-Prusoff
From the text: (§1) Rat brain (Sprague Dawley, 200-250 g) synaptosomes were isolated from midbrain and hindbrain for serotonin transporter assays, striatum for dopamine transporter assays, and hippocampus plus overlying occipital cortex for norepinephrine transporter assays. Radioligands used were: [^3H]Citalopram 81.4 Ci/mmol (PerkinElmer NET1039250UC; Lot No. 2960876). [^3H]WIN35428 82.8 Ci/mmol (PerkinElmer NET1033250UC; Lot No. 2891473). [^3H]Nisoxetine 79.2 Ci/mmol (PerkinElmer NET1084250UC; Lot No. 2970324). Non-specific compounds used were: Citalopram (Tocris Bioscience 1427). JHW007 (Tocris Bioscience 4351). Nomifensine (Abcam ab146004). Test Compounds for the study were: racemic methylone HCl; (R)-methylone HCl; (S)-methylone HCl.
(§2) For membrane preparations, rat brains were dissected, tissue was added to ice-cold lysis buffer (50 mM Tris HCl; 5 mM MgCl2; 5 mM EDTA; protease inhibitor cocktail) and homogenized. The homogenate was centrifuged at 100×g for 2 minutes and the supernatant divided into polypropylene Eppendorf tubes. The supernatants were centrifuged at 17,000×g for 10 minutes at 4° C. to re-pellet the cell lysate. The pellet was resuspended in fresh wash buffer (50 mM Tris-HCl; 5 mM MgCl2; 5 mM EDTA) and centrifuged a third time at 17,000×g for 10 minutes at 4° C. The pellet was resuspended in wash buffer containing 10% sucrose as a cryoprotectant, divided into aliquots (0.3 mL) and stored at −80° C. A sample of the homogenate was analyzed for protein content using the MERCK® BCA assay. On the day of the assay, the membrane preparation was thawed and the pellet resuspended in final assay buffer.
(§3) Competition binding assays were carried out in 96-well polypropylene plates in a final volume of 250 μL per well. To each well was added 150 μL membranes, 50 μL of test compound, non-specific compound or buffer, and 50 μL radioligand solution in buffer. The plate was incubated at 30° C. for 90 minutes with gentle agitation. The incubation was stopped by vacuum filtration onto presoaked (wash buffer with PEI) GF/C filters using a 96-well FILTERMATE™ harvester, followed by 5 washes with ice-cold wash buffer. Filters were then dried under a warm air stream, sealed in polyethylene, scintillation cocktail added, and the radioactivity counted in a WALLAC® TriLux 1450 MicroBeta counter. For each concentration of drug, non-specific binding was subtracted from total binding to give specific binding. Data was fitted using the non-linear curve fitting routines in PRISM® (Graphpad Software Inc) to determine IC50. Ki was subsequently calculated using the ChengPrusoff equation.

[2] = biological target: norepinephrine transporter (NET); assay: Competition radioligand binding, [3H]Nisoxetine, rat brain membranes; conditions: for IC50 / Ki: NE transporter; for Ki: Cheng-Prusoff
From the text: as §1, §2, §3

[3] = biological target: DAT (Rattus norvegicus (Rat), UniProt P23977); assay: [3H]Dopamine uptake inhibition in rat brain synaptosomes; format: biochemical; conditions: DA
Procedure: Materials used were: Neurotransmitters [3H]5-HT (PerkinElmer, NET498001MC) [^3H]Dopamine (PerkinElmer, NET673250UC) [^3H]Norepinephrine (PerkinElmer, NET377250UC); Test Compounds Racemic methylone HCl (Merck, M-140); (R)-methylone HCl (Pisgah Labs); (S)-methylone HCl (Pisgah Labs); Reference Compounds Citalopram (Tocris Bioscience 1427). JHW007 (Tocris Bioscience 4351). Nomifensine (Abcam ab146004).
Synaptosomes were prepared from Sprague Dawley (200-250 g) rat brain regions (hippocampus for NE, striatum for DA and midbrain for 5-HT) using standard protocols. Tissues were dissected, added to sucrose buffer (0.32 M), homogenized with a dounce-homogenizer and centrifuged at 100×g to remove cells and debris. Supernatant was collected and centrifuged 17,000×g for 10 minutes at 4° C. to pellet the synaptosomes. The pellet was resuspended in fresh assay buffer.
Uptake assays were carried out in 96-well plates in a final volume of 250 μL per well. To each well was added 150 μL synaptosomes, 50 μL test, non-specific compound or buffer alone. The plate was incubated at 30° C. for 30 minutes with gentle agitation. 50 μL radiolabeled neurotransmitter in buffer was then added to each well to initiate the uptake. The plate was incubated at 30° C. for a further 5 minutes with gentle agitation. The incubation was stopped by vacuum filtration onto presoaked GF/C filters using a 96-well FilterMate™ harvester, followed by 3 washes with ice-cold wash buffer. Filters were then dried under a warm air stream, sealed in polyethylene, scintillation cocktail added, and the radioactivity counted in a Wallac® TriLux 1450 MicroBeta counter.
For each concentration of drug, non-specific uptake was subtracted from total uptake to give specific uptake. Data was fitted using the non-linear curve fitting routines in Prism® (Graphpad Software Inc) to determine IC50.

[4] = biological target: hNav1.5 Late Current (Homo sapiens (Human), UniProt Q14524); assay: hNav1.5 Late Current Sodium Channel Assay, Qube APC; format: cell-based; conditions: Nav1.5 Late Current, Antagonist mode, test compound
Procedure: Electrophysiological assays were conducted to profile three compounds ((R)-methylone, (S)-methylone, or racemic methylone) for activities on the ion channel targets specified below using the Qube electrophysiological platform. Where presented, IC50 values were determined by a non-linear, least squares regression analysis. Reference standards were run as an integral part of each assay to ensure the validity of the results obtained.
Ion Channels tested were Eurofins Panel Part Number: CPROFullQB2DR Voltage-Gated Sodium: HEK-Nav1.5 (Peak), HEK-Nav1.5 (Late, Antagonist) Voltage-Gated Potassium: HEK-Kv4.3/KChIP2, CHO-hERG, CHO-KCNQ1/minK Voltage-Gated Calcium: HEK-Cav1.2 Inward-Rectifying Voltage-Gated Potassium: HEK-Kir2.1.
hNav1.5 Late Current Sodium Channel Assay—Qube APC Onset and steady state block of Late Nav1.5 current is measured using a pulse pattern, repeated every 5 sec, consisting of a hyperpolarizing pulse to −120 mV for a 200 ms duration, depolarization to −15 mV amplitude for a 40 ms duration, followed by step to 40 mV for 200 ms and finally a 100 ms ramp (1.2 V/s) to a holding potential of −80 mV. Late current is measured as charge current elicited during the ramp with 50 nM ATXII.

Structure (SMILES) | IC50 [1] | Ki [1] | IC50 [2] | Ki [2] | Potency relative to racemic methylone ([2]; NET binding) | IC50 [3] | Estimated IC50 [4] | Potency relative to racemic methylone ([1]; DAT binding)
CN[C@@H](C)C(=O)c1ccc2c(c1)OCO2 [(S)-methylone] | 8.34 µM | 4.14 µM | 7.12 µM | 3.37 µM | nearly two-fold less potent | 0.634 µM | N/C (N/C indicates observed mean inhibition was <25%) | 
CN[C@H](C)C(=O)c1ccc2c(c1)OCO2 [(R)-methylone] | 24.7 µM | 12.3 µM | 4.67 µM | 2.19 µM |  | 3.44 µM | N/C (N/C indicates observed mean inhibition was <25%) | approximately three-fold less potent
